According to patent US20210268122A1, “INHIBITION OF S[…] PROTEIN INHIBITORS OF CYSTEINE PROTEASES” (DYVE BIOSCIENCES, INC., priority 2017, published 2021):
Like-named read-outs stand apart in the source and are kept apart here.

Columns and labels:
[1] = test system: MMTV-PyMT-transgenic mouse model; settings: cited from earlier work
cysteine cathepsin = settings: after intra-peritoneal injections; cited from earlier work
RIP1-Tag2 mice = settings: 100 μL topically once daily
From the text: Trial design was built to assess these primary outcomes: the effects on angiogenesis and tumor growth. Treatment groups randomized as follows:
Each applied topically once daily. Formulations are detailed below:

LL/2 cells = settings: SCID-beige mice, 1×10^6 LL/2 cells intravenously; treatment for 120 days
Experimental: In vivo tests were performed as follows: SCID-beige mice aged 6 weeks were injected intravenously with 1×10^6 LL/2 cells.
The treatment groups were:
Group A (Negative Control): Untreated
Volumes of primary tumors were measured twice weekly.

MDA-MB-231/eGFP cells [2] = test system: MDA-MB-231/eGFP cells
MDA-MB-231/eGFP cells [3] = settings: Example 14, Ncr nude mice
[4] = Example 13, Ncr nude mice, gross necropsy at end of 120 day survival experiment
[5] = gross necropsy at end of 120 day survival experiment

Compound | activity against early and advanced mammary cancer stages [1] | cysteine cathepsin activities in mammary and in lungs (cysteine cathepsin) | cysteine cathepsin activities in pancreas, kidney, and liver (cysteine cathepsin) | reduction in the number of angiogenic islets relative to the Control Group (RIP1-Tag2 mice; at 10.5 weeks of age) [%] | reduction of cumulative tumor volume relative to the Control Group (RIP1-Tag2 mice; at 14.5 weeks of age) [%] | mice surviving to 120 days (LL/2 cells) [%] | % of mice surviving to 120 days (MDA-MB-231/eGFP cells [2]; Example 13, Ncr nude mice, MDA-MB-231/eGFP orthotopic) [%] | metastatic rate, intestinal (MDA-MB-231/eGFP cells [2]; [4]) [%] | metastatic rate, lung (MDA-MB-231/eGFP cells [2]; [4]) [%] | metastatic rate, lymph node (MDA-MB-231/eGFP cells [2]; [4]) [%] | metastatic rate, mesentery (MDA-MB-231/eGFP cells [2]; [4]) [%] | primary tumor growth rates (MDA-MB-231/eGFP cells [2]; Example 13, compared among all active groups B, C, D, E) | % of mice surviving to 120 days (MDA-MB-231/eGFP cells [3]; MDA-MB-231/eGFP orthotopic) [%] | metastatic rate, intestinal (MDA-MB-231/eGFP cells [3]; [5]) [%] | metastatic rate, lung (MDA-MB-231/eGFP cells [3]; [5]) [%] | metastatic rate, lymph node (MDA-MB-231/eGFP cells [3]; [5]) [%] | metastatic rate, mesentery (MDA-MB-231/eGFP cells [3]; [5]) [%]
JPM-OEt | active | not significantly affected | effective inhibition | 49 | 67 |  |  |  |  |  |  |  |  |  |  |  | 
O=C([O-])O.[Na+] [Group B (Oral Buffer, Positive Control), sodium bicarbonate] |  |  |  |  |  | 20 | 60 | 0 | 8 | 27 | 0 | the same | 60 | 0 | 8 | 27 | 0
